These results are taken from ChEMBL document CHEMBL2177007, “Indole-derived psammaplin A analogues as epigenetic modulators with multiple inhibitory activities” (J Med Chem, 2012).

Active and inactive are the calls of the source. The calls are words filed in the database; no cut-off is given here.

Broadly, the inhibition is the relative decrease from the control value, in per cent.

Assay [1] addresses T1, Protein deacetylase HDAC6 (Homo sapiens) (UniProt Q9UBN7).
T1 sequence (whole entry): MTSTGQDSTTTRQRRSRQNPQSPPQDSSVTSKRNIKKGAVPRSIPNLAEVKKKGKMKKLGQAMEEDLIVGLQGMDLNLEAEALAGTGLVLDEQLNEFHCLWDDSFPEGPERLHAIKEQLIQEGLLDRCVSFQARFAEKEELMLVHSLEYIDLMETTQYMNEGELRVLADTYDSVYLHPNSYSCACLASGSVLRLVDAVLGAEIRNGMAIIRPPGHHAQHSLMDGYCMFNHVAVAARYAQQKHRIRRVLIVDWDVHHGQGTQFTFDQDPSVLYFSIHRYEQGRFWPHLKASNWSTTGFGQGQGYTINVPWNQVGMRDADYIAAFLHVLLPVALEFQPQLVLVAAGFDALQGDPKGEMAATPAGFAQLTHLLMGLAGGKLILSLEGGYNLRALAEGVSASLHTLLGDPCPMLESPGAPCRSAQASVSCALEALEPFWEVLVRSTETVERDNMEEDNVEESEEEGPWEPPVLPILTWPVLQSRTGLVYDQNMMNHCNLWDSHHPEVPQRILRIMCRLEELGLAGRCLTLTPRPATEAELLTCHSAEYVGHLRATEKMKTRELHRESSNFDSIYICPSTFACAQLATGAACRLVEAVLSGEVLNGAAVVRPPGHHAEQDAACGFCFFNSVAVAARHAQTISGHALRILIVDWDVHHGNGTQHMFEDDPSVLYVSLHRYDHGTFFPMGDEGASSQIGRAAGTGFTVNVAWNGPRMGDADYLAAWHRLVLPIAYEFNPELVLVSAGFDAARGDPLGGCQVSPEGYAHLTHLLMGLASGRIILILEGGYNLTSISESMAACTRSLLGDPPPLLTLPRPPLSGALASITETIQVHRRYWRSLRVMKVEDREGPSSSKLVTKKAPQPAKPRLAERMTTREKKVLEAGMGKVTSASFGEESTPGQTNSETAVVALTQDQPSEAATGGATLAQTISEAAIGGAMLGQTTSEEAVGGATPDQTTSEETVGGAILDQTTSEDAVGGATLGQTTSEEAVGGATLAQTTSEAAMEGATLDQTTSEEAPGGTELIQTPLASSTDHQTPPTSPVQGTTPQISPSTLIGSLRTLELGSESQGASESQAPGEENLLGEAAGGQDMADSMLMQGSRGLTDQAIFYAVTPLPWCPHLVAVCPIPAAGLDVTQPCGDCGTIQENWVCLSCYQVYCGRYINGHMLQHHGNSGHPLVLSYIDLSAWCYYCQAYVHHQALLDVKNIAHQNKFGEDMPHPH
Kind of assay: Inhibition of HDAC6 in human U937 cells assessed as induction of alpha-tubulin acetylation at 5 uM after 30 hrs by cytofluorimetric analysis. The assay is classed as cell-based. The settings on record: U-937.

Assay [2] concerns the target Histone deacetylase 1 (Homo sapiens) (UniProt Q13547). As to the kind of experiment: Inhibition of HDAC1 in human U937 cells at 5 uM […]. The format is cell-based. The settings on record: U-937.
Assay [3] concerns the target Histone deacetylase (Homo sapiens) (UniProt Q13547+O15379+Q9UBN7+Q92769+Q9UQL6+Q8WUI4+Q9BY41+Q96DB2+P56524+Q9UKV0+Q969S8). Kind of assay: Inhibition of HDAC in human U937 cells assessed as induction of histone H3 acetylation at 5 uM after 30 hrs by cytofluorimetric analysis. The format is cell-based. The settings on record: U-937.
The target in assay [4] is Protein kinase C alpha type (Homo sapiens) (UniProt P17252). Kind of assay: Inhibition of PKCalpha in human U937 cells assessed as p21WAF1/CIP1 expression at 5 uM after 30 hrs by cytofluorimetric analysis. The format is cell-based. The settings on record: U-937.
The subject of assay [5] is U-937. Kind of assay: Induction of apoptosis in human U937 cells at 5 uM after 30 hrs. The assay is classed as functional, cell-based.
For assay [6], the target named is Histone deacetylase 4 (Homo sapiens) (UniProt P56524). Kind of assay: Inhibition of HDAC4 in human U937 cells at 5 uM […]. The settings on record: U-937. The format is cell-based.
Chain of Histone deacetylase 4 (Homo sapiens) (P56524 whole entry): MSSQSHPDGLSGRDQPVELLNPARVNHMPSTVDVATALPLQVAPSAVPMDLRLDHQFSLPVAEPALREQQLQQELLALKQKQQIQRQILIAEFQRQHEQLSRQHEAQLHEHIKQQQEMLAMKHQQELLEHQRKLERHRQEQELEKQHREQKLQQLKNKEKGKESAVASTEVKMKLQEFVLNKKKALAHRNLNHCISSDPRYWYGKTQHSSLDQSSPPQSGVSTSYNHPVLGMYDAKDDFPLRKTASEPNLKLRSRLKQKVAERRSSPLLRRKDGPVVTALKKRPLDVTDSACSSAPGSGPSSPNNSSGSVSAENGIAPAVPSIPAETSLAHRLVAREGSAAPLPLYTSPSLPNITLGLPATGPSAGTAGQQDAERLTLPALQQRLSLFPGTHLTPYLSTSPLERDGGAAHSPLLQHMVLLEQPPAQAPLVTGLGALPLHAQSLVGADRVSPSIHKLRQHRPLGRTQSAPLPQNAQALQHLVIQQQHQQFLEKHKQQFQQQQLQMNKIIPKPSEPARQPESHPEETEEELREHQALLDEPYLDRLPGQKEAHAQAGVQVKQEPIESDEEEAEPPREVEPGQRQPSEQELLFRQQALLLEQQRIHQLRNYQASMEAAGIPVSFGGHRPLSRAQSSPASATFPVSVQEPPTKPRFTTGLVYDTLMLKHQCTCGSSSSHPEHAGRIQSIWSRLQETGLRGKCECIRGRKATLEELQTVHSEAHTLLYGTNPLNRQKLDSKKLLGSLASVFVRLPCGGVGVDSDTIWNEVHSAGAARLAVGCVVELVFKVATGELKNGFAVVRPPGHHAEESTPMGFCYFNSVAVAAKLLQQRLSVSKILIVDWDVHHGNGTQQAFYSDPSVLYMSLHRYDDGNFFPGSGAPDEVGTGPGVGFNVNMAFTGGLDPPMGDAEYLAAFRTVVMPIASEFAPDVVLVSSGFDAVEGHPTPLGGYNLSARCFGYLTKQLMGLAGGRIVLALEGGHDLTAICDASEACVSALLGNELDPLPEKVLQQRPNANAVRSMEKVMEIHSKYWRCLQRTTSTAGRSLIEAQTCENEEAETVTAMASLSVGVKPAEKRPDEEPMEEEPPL
For assay [7], the target named is DNA (cytosine-5)-methyltransferase 1 (Homo sapiens) (UniProt P26358). As to the kind of experiment: Inhibition of recombinant DNMT1 using S-adenosyl-L-[methyl-3H]methionine as substrate at 5 uM after 2 hrs by radioactive assay.
Chain of DNA (cytosine-5)-methyltransferase 1 (Homo sapiens) (P26358 whole entry): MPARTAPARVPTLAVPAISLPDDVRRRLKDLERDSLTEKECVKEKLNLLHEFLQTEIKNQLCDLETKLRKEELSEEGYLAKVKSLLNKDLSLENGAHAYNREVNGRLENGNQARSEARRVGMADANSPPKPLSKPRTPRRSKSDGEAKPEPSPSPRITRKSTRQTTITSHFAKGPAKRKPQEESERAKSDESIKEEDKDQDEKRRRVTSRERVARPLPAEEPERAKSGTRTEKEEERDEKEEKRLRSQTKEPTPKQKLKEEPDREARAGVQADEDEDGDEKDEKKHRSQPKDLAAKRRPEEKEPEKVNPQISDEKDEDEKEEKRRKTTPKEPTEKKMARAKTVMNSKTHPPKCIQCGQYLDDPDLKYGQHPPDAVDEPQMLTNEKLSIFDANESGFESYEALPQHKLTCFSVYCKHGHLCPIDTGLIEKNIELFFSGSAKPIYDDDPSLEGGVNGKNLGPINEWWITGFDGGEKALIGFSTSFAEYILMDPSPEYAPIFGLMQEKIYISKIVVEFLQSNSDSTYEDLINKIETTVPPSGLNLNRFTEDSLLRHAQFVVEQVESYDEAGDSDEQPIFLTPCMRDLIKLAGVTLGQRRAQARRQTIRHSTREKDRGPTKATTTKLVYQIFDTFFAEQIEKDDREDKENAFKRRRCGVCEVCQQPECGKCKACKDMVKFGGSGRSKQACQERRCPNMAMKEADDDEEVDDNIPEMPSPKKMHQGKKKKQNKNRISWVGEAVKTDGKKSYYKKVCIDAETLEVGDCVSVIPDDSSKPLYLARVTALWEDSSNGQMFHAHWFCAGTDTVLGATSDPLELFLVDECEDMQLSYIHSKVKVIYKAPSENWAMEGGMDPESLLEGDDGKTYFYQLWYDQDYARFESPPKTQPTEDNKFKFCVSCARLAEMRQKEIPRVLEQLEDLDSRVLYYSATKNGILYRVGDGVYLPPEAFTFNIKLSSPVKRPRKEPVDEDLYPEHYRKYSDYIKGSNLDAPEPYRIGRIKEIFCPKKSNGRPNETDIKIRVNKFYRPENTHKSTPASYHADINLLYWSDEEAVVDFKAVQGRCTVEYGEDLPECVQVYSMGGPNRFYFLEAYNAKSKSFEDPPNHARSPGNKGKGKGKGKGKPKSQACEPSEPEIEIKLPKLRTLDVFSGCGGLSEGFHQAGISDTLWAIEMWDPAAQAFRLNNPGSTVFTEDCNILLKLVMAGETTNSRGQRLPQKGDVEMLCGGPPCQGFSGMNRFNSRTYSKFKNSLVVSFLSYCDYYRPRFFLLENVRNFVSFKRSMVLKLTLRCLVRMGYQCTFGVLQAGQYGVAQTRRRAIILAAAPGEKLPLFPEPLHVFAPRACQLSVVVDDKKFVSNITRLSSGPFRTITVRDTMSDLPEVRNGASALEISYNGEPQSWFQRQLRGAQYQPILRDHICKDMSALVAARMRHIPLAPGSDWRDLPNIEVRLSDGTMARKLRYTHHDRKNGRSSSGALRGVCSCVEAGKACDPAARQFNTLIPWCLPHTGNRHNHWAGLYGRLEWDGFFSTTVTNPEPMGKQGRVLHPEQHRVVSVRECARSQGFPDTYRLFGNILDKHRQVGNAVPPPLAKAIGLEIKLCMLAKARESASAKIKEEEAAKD
Assay [8] relates to U-937. Kind of assay: Induction of cell differentiation in human U937 cells assessed as CD11c expression at 5 uM after 30 hrs by cytofluorimetric analysis. The format is functional, cell-based.

Chain of Histone deacetylase 1 (Homo sapiens) (Q13547 whole entry): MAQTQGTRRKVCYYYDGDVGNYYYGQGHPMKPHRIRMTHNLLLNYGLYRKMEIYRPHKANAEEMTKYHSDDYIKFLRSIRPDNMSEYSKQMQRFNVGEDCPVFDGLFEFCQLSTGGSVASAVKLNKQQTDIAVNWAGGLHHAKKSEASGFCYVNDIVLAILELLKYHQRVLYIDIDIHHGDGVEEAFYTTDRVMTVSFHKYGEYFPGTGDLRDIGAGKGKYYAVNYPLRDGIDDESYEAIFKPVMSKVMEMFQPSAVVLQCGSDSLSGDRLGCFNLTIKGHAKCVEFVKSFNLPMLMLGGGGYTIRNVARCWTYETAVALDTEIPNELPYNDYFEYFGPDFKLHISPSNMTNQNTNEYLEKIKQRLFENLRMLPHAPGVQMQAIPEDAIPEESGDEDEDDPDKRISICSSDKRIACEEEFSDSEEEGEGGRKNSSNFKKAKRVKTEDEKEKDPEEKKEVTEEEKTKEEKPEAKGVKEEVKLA

Regarding `O=C(NCCSSCCNC(=O)/C(Cc1c[nH]c2cccc(Br)c12)=N/O)/C(Cc1c[nH]c2cccc(Br)c12)=N/O`, the inhibition entry in assay [1] is “Active”.
In the case of `O=C(NCCSSCCNC(=O)/C(Cc1c[nH]c2ccc(Cl)cc12)=N/O)/C(Cc1c[nH]c2ccc(Cl)cc12)=N/O`, the inhibition entry in assay [2], in assay [3], in assay [1], in assay [4] and in assay [6] was “Active” throughout. Besides, the result in assay [5] was Active.
In the case of `O=C(NCCSSCCNC(=O)/C(Cc1c[nH]c2ccc(F)cc12)=N/O)/C(Cc1c[nH]c2ccc(F)cc12)=N/O`, the inhibition result in assay [2] and in assay [6] was “Active” each time. Moreover, the inhibition entry in assay [3], in assay [1] and in assay [4] was “inactive” each time. Besides, the result in assay [5] was Active.
Take `O=C(NCCSSCCNC(=O)/C(Cc1c[nH]c2ccc(Br)cc12)=N/OCc1ccccc1)/C(Cc1c[nH]c2ccc(Br)cc12)=N/OCc1ccccc1`: the inhibition entry in assay [1] was “Active”.
For `O=C(NCCCCCSSCCCCCNC(=O)/C(Cc1c[nH]c2ccc(Br)cc12)=N/O)/C(Cc1c[nH]c2ccc(Br)cc12)=N/O`, the inhibition in assay [2] is 40%; in assay [6], 20%. Besides, the inhibition entry in assay [1] was “Active”.
As for `Cn1cc(CCC(=O)NCCSSCCNC(=O)CCc2cn(C)c3ccc(Br)cc23)c2cc(Br)ccc21`, the inhibition result in assay [1] is “Active”.
`O=C(NCCSSCCNC(=O)/C(Cc1c[nH]c2ccc(I)cc12)=N/O)/C(Cc1c[nH]c2ccc(I)cc12)=N/O`: the inhibition entry in assay [2], in assay [3], in assay [1], in assay [4] and in assay [6] was “Active” each time. In addition, the outcome in assay [5] was Active.
With `O=C(O)[C@H](Cc1c[nH]c2ccccc12)N1C(=O)c2ccccc2C1=O`, in assay [7], the inhibition result is “Active”.
`O=C(NCCCSSCCCNC(=O)/C(Cc1c[nH]c2ccc(Br)cc12)=N/O)/C(Cc1c[nH]c2ccc(Br)cc12)=N/O`: the inhibition result in assay [1] was “Active”. Also, the result in assay [8] was Active.
For the molecule `COc1ccc2[nH]cc(C/C(=N\O)C(=O)NCCSSCCNC(=O)/C(Cc3c[nH]c4ccc(OC)cc34)=N/O)c2c1`, the inhibition entry in assay [2], in assay [3], in assay [1], in assay [4] and in assay [6] was “Active” in each case. The outcome in assay [8] and in assay [5] was Active.
